Experimental data taken from patent publication US11607404B2, “Combinations of RAD51 and PARP inhibitors” (Cyteir Therapeutics, Inc., priority 2019, dated 2023).
pEC50: −log10 of the molar value. Like-named read-outs stand apart in the source and are kept apart here.

Assays:
[1] = tested on: WI-38 cells (AID negative); assay: Primary screening cell killing assay repeated in AID negative cells; type: cell-based, Human; settings: Homo sapiens; WI-38 cells (AID negative); read-out: AID− EC50
Description: (§1) Primary screening was a phenotypic screen that utilized the synthetic lethal interaction between AID and RAD51 to identify compounds that were both potent and on target. AID expressing cells are dependent upon RAD51 for survival; inhibiting RAD51 in AID positive cells results in a cytotoxic effect.
Percent cell death and EC50 values were calculated by comparing the cell viability of the compound treated wells to the non-treated wells. Normalized RLU values were obtained by subtracting the media well values from each of the wells in the same column, and then dividing that value by the DMSO treated cells values. The percent kill was then calculated by subtracting the normalized RLU value from 1 and multiplying by 100. The average normalized percent kill value and standard error of the mean was then calculated. The kill values were then inputted into Prism with the corresponding standard errors. In Prism a non-linear regression line was plotted with the data points using a semi-log scale, and the EC50 value was calculated.
The activity of the claimed compounds was measured in a variety of cell lines with different expression levels of activation induced cytidine deaminase (AICDA). The potency assay was repeated in all of the listed cell lines and the EC50 values recorded.

[2] = tested on: Daudi cell line (AID positive); assay: Primary screening cell killing assay (Cell-Titer Glo, Day 7); type: cell-based; settings: Homo sapiens, 168 h; Daudi cells (AID positive), cell death on Day 7; read-out: AID+ EC50
Description: as §1
(§2) The first step was to set up a cell killing assay in the Daudi cell line (AID positive). A 96 well u-bottom plate was prepared by writing the experiment number, plate number, date and initials in the top right corner of the plate lid. With a sterile 300 ml reservoir, and 25 ml serological pipette, evaporation buffer media was pipetted into reservoir in 25 ml increments. Using the liquid handler, 150 ul of evaporation buffer media was pipetted from reservoir into rows A and H, and Columns 1 and 12 of the 96 well u-bottom plate. Cell cultures were counted to obtain the density of cells per ml, and the culture viability. The cell density information was used to obtain 1,000,000 cells from culture using a 5 mL serological pipette into an epi tube. The cell density information from the culture was used to calculate the number of cells and volume of media needed for the assay to seed 1250 cells in 130 ul of media per available culture well in the 96 well u-bottom plate. Rows B through F were used for cells (50 wells in total), with row G left for an empty media control. The calculation was overestimated by 10 mL to account for the dead volume in the 300 ml reservoir. Once the media volume was calculated, the appropriate volume of media was pipetted in 25 mL increments into the 250 mL bottle using a 25 mL serological pipette. The 250 ml bottle was capped tightly, and placed into a 37° C. water bath for 2 minutes. While the culture media was warming, 10 mL of fresh media was pipetted from the 500 mL culture media bottle into a sterile 25 mL reservoir. Using the Eppendorf multichannel pipette, 130 ul of media was piptted from the 25 mL reservoir into row G of the 96 well u-bottom plate. Once the 250 mL bottle of media was warmed, the volume of culture needed was pipetted into the bottle, and mixed gently with a 25 mL serological pipette as to not create bubbles, and then the contents of the bottle were pipetted into a new 300 mL reservoir. Using the liquid handler, 130 ul of culture was pipetted from the 300 mL reservoir into rows B through F of the 96 well u-bottom plate. Once the culture was added, the plate was placed into a 37° C. incubator until the compound master plate was prepared for use.
(§3) Two 96 well u-bottom plates were prepared by writing the master plate name in the upper right corner of the plate lid. Labeling one DMSO master and the other Media Master. The compounds of interest were obtained from the laboratory freezer, and placed into a 25 well storage box with a lid, and set the box aside. The compounds were vortexed after thawing but before use. Using an automatic multichannel pipette, 20 ul of 100% DMSO was pipetted into wells B3-B11 through G3-G11 of the DMSO master plate. For each compound on the master plate, 50 ul of the compound were pipetted in the appropriate well of row 2 (reference plate map to determine appropriate well). A serial dilution was prepared beginning by aspirating 20 ul from row 2 and mixing with row 3, repeating until row 11 was reached. Using the liquid handler, 194 ul of Daudi media was dispensed into wells B2-B11 through G2-G11 of the Media master plate. Using the liquid handler, 6 ul from the DMSO master plate was aspirated and dispensed into the media master plate, mixing 100 ul twice.
Compounds from master plate were then added to the culture plate. The culture plates were removed from the incubator, and set inside the biosafety cabinet. Using a liquid handler, 20 ul from wells B2 to B11 through G2 to G11 of master plate were aspirated, and dispensed into wells B2 to B11 through G2 to G11 of culture plate. This set was continued with each culture plate. […]

[3] = Bi-directional Caco-2 permeability; type: in vitro ADME; settings: human; for Papp A→B / Papp B→A: Caco-2, 37 C, up to 90 minutes; for Papp A→B: apical to basolateral, read-out: AB Papp (cm/sec × 10^6); for Papp B→A: basolateral to apical, read-out: BA Papp (cm/sec × 10^6); for efflux ratio: Caco-2 efflux ratio, read-out: BA/AB Ratio
Description: Bi-directional Caco-2 permeability was assayed. Caco-2 cells were seeded onto permeable polycarbonate supports and allowed to differentiate for about 3 weeks prior to being used in the assays. The cells were then exposed to the compounds from either the apical or basolateral sides and incubated at 37 C for up to 90 minutes under light agitation. Compound transport was then measured using LC/MS/MS analysis at 30, 60, and 90 minutes.

[4] = Human liver microsome stability; type: in vitro ADME; settings: percentage of hepatic blood flow
Description: The stability of the claimed compounds was determined in the presences of human liver microsomes. The compounds were incubated with the microsomes at 37° C. for 45 minutes. Samples were analyzed using LC-MS/MS. Data analysis included half-life, clearance rate, and the percentage of hepatic blood flow (% QH) for each of the compounds in the different species.

[5] = Pharmacokinetic (PK) study; type: in vivo, Rat; settings: po @ 80 mg/kg (30% PEG400, 10% Vitamin E TPGS in water)
Description: PK studies in mice were used to determine the fate of the compounds in a whole organism. Rats were treated with the compounds either orally of via IV at the indicated doses and followed for up to 24 hours. Plasma samples were taken at different time points and analyzed by LC-MS.

[6] = tested on: ARPE19/HPV16 (HPV Immortalized RPE); assay: Cell line screen (potency assay); type: cell-based; settings: ARPE-19, AICDA expression Negative
Description: as §2, §3
Compounds from master plate were then added to the culture plate. The culture plates were removed from the incubator, and set inside the biosafety cabinet. Using a liquid handler, 20 ul from wells B2 to B11 through G2 to G11 of master plate were aspirated, and dispensed into wells B2 to B11 through G2 to G11 of culture plate. This set was continued with each culture plate. Once the culture plates acquired their 20 ul of compound dilutions, they were placed back into the incubator, until their reads on Day 7 of experiment. Cell death was measured on Day 7 of the experiment using Cell-Titer Glo and a Promega Plate reader. […]

[7] = Caco-2, apical to basolateral, read-out: AB Recovery %
[8] = Caco-2, basolateral to apical, read-out: BA Recovery %

SMILES	pEC50 [1]	pEC50 [2]	recovery at 90 min [3, 7]	recovery at 90 min [3, 8]	Human Liver Microsome Stability % QH [4]	F (%) @ 5 mg/kg ([5]; Rat Female)	F (%) @ 5 mg/kg ([5]; Rat Male)	pEC50 [6]	Papp A→B [3]	Papp B→A [3]	efflux ratio [3]
CC(C)OC(=O)NC1CCC(c2ncc(-c3ccc(NC(=O)NCc4cccc(F)c4)cc3S(=O)(=O)NC(C)(C)C)s2)CC1 (stereo not drawn) [Compound 27]	< 6.00	≥ 7.00	92%	107%	–	–	–	–	–	–	–
CC(C)OC(=O)N[C@H]1CC[C@H](c2ncc(-c3ccc(NC(=O)NCc4ccccc4)cc3S(=O)(=O)NC(C)(C)C)s2)CC1 [Compound 66A]	–	–	–	–	49.6%	3.31%	2.55%	< 5.00	–	–	–
CC(C)(C)NS(=O)(=O)c1cc(NC(=O)NCc2ccccc2)ccc1-c1cnc(C2CCC(NC(=O)OC3COC3)CC2)s1 (stereo not drawn) [Compound 47]	< 6.00	≥ 7.00	65.3%	80.7%	–	–	–	–	8.7 ×10⁻⁶ cm/s	12.4 ×10⁻⁶ cm/s	1.4
CC(C)OC(=O)NC1CCC(c2ncc(-c3ccc(NC(=O)N[C@H](C)c4ccccn4)cc3S(=O)(=O)NC(C)(C)C)s2)CC1 (stereo partly drawn) [Compound 30]	< 6.00	≥ 7.00	79.8%	116%	–	–	–	–	–	–	–
CC(C)(C)NS(=O)(=O)c1cc(NC(=O)NCc2ccccc2)ccc1-c1cnc(C2CCC(NC(=O)OC(C)(C)C)CC2)s1 (stereo not drawn) [Compound 10]	< 6.00	≥ 7.00	59.9%	87.2%	–	–	–	–	1.2 ×10⁻⁶ cm/s	1.5 ×10⁻⁶ cm/s	1.3
CC(C)OC(=O)N[C@@H]1CCC(c2ncc(-c3ccc(NC(=O)NCc4ccccc4)cc3S(=O)(=O)NC(C)(C)C)s2)NC1 (stereo partly drawn) [Compound 64]	< 6.00	≥ 7.00	79.7%	95.9%	–	–	–	–	–	–	–
